# US11116212B2, “Carbonyl containing compounds for controlling and repelling Cimicidae populations” (SemiosBio Technologies Inc., priority 2011, dated 2021)
# Where a name gives a salt, the structure may show the parent alone. Read-outs that look alike come from different tables or passages of the source.
# Test system: bed bugs, Cimex lectularius
# Assay: Bed bug repellency bioassay, glass tube olfactometer arena
# Format: in vivo
# Conditions: for pest or weed control at 25 % strength / pest or weed control at 1 % / pest or weed control at 5 % strength: Cimex lectularius; for % Repellency, At least One Average >50%: best average over 3 replicates for a single time period
# Experimental: Per individual bioassay, 10 adult or late instar nymph bed bugs, Cimex lectularius, of mixed sex. Bed bugs sourced from wild, field populations and tested within 2 weeks of capture. Subjects were tested one time, only.
# (ii) Olfactometer consisting of a glass tube. Tube ends were plugged to prevent egress of test subjects. Test substrates were placed at opposite ends of the tube. Tube Olfactometer includes a port in the centre for introduction of test subjects. Dimensions of the tube were 15.2 mm in diameter by 304.8 mm long.
# Compounds were either purchased from commercial sources or synthesized using conventional synthetic organic chemistry techniques (see, for example, Examples 5 to 7). Some compounds (014, 058 and 080) were tested in duplicate (one version from commercial sources and one synthesized) and the best performance is reported in the Tables below. Of the tested compounds reported in the Tables below, the following compounds were synthesized: 006, 010, 017, 018, 040, 041 to 043, 045, 046, 048, 049, 058, 067 to 075, 079, 080 to 082, 089 and 090.
# Test compounds consisted of a control and treatment. The treatment consisted of a test compound mixed as a percentage w/w in a suitable solvent. The test compound solvent itself was used as a control. Solvents used were hexane, hexane:methanol, or dichloromethane:methanol.
# (i) Gauze cut to a standard size and folded upon itself to provide harbourage for test subjects.
# (iii) Absorbent polymer “aroma” beads that were given sufficient time to fully absorb test compounds and control solvents.
# In the case of gauze and filter paper substrates, control solvents and test mixtures of known concentrations and volumes were dispensed directly onto substrates using a pipette. For polymer beads, beads were mixed w/w with solvent or test compound in a small glass jar. The jars were occasionally agitated to facilitate soaking of the beads.
# Immediately after the substrates were infused with test compounds and control solvents, test subjects were introduced to the centre of the selected observation arena. […] Only subjects that were in close contact with the treatment or control substrates were recorded. Subjects elsewhere in the arena were not included in repellency calculations. Percentage repellency was calculated based on a modification of Abbott's formula to account for negative repellency (attraction). Specifically: IF(C>=T,(C−T)/C*100,(T−C)/T*−100)
# where C is number of test subjects in contact with control substrate and T is number of test subjects in contact with treatment substrate.
# All average repellency results reported in the table are based on 3 replicates for each reported trial, with each trial involving at least 3 observation periods. The observation periods were short-term (30 min), medium-term (1-2 hours), and long-term (24-48 hours). The “overall average” reported in the table represents the average for 3 replicates for 3 observation periods. […]
# To determine whether compounds could be combined in the repellent compositions, compounds 14 and 35 were each tested at a concentration of 5% (w/w), and as a combination comprising each compound at a concentration of 2.5% (w/w). The formulations were tested as described in Example 1 using the olfactometer configuration.
# [1] = beads, 20 uL, 25% w/w in hexane, average of 3 replicates x 3 observation periods, read-out: % Repellency (% R), Overall Average
# [2] = gauze, 10 uL, 1% v/v in hexane, average of 3 replicates x 3 observation periods, read-out: % Repellency (% R), Overall Average
# [3] = observation period T1, gauze, 10 uL, 1% v/v in hexane, read-out: % Repellency T1 (average of 3 repetitions)
# [4] = observation period T2, gauze, 10 uL, 1% v/v in hexane, read-out: % Repellency T2 (average of 3 repetitions)
# [5] = observation period T3, gauze, 10 uL, 1% v/v in hexane, read-out: % Repellency T3 (average of 3 repetitions)
# [6] = gauze, 50 uL, 5% w/v in hexane, average of 3 replicates x 3 observation periods, read-out: % Repellency (% R), Overall Average
# [7] = observation period T1, gauze, 50 uL, 5% w/v in hexane, read-out: % Repellency T1 (average of 3 repetitions)
# [8] = observation period T2, gauze, 50 uL, 5% w/v in hexane, read-out: % Repellency T2 (average of 3 repetitions)
# [9] = observation period T3, gauze, 50 uL, 5% w/v in hexane, read-out: % Repellency T3 (average of 3 repetitions)
# [10] = observation period T1, beads, 20 uL, 25% w/w in hexane, read-out: % Repellency T1 (average of 3 repetitions)
# [11] = observation period T2, beads, 20 uL, 25% w/w in hexane, read-out: % Repellency T2 (average of 3 repetitions)
# [12] = observation period T3, beads, 20 uL, 25% w/w in hexane, read-out: % Repellency T3 (average of 3 repetitions)
# [13] = beads, 20 uL, 25% w/w in hexane
# [14] = gauze, 50 uL, 5% w/v in hexane, best single observation (one repetition, one time), read-out: % Repellency, At least One Time >50%
structure (smiles),measurement,setting,value
"CCC(=O)OCC1CCCO1 (centres unmarked) [Compound 060, Tetrahydro furfuryl propionate]",pest or weed control at 25 % strength,[1],78%
"CCCCCCC(=O)CC [Compound 028, 3-Nonanone]",pest or weed control at 1 %,[2],-10%
same,pest or weed control at 1 %,"gauze, 10 uL, 1% v/v in hexane, best single observation (one repetition, one time), read-out: % Repellency, At least One Time >50%",67%
same,pest or weed control at 1 %,[3],-11%
same,pest or weed control at 1 %,[4],-11%
same,pest or weed control at 1 %,[5],-6%
"CCOC(C#CC(=O)CC)OCC [Compound 079, 6,6-diethoxyhex-4-yn-3-one]",pest or weed control at 5 % strength,[6],> 80%
"CCC(=O)NC [Compound 032, N-Methylpropionamide]",pest or weed control at 25 % strength,"read-out: % Repellency (% R), Overall Average, beads, 20 uL, 25% w/w in hexane, average of 3 replicates x 3 observation periods",-9%
same,pest or weed control at 25 % strength,"read-out: % Repellency T1 (average of 3 repetitions), observation period T1, beads, 20 uL, 25% w/w in hexane",39%
same,pest or weed control at 25 % strength,"read-out: % Repellency T2 (average of 3 repetitions), observation period T2, beads, 20 uL, 25% w/w in hexane",-40%
same,pest or weed control at 25 % strength,"read-out: % Repellency T3 (average of 3 repetitions), observation period T3, beads, 20 uL, 25% w/w in hexane",-25%
same,pest or weed control at 25 % strength,"read-out: % Repellency, At least One Time >50%, beads, 20 uL, 25% w/w in hexane, best single observation (one repetition, one time)",100%
"CCC(=O)OCC=O [Compound 008, 2-oxoethyl propionate]",pest or weed control at 5 % strength,[6],27%
same,pest or weed control at 5 % strength,[7],12%
same,pest or weed control at 5 % strength,[8],53%
same,pest or weed control at 5 % strength,[9],17%
same,"% Repellency, At least One Average >50%","gauze, 50 uL, 5% w/v in hexane",53%
"CCC(=O)/C(C)=C/c1ccco1 [Compound 048, (E)-1-(furan-2-yl)-2-methylpent-1-en-3-one]",pest or weed control at 5 % strength,[6],> 80%
"CCC/C=C/C=O [Compound 038, trans-2-hexen-1-al]",pest or weed control at 5 % strength,[6],72%
"CC(=O)OCc1ccco1 [Compound 084, Furfuryl acetate]",pest or weed control at 25 % strength,[1],61%
"CCCCC(=O)c1ccco1 [Compound 090, 1-Pentanone, 1-(2-furanyl)-]",pest or weed control at 5 % strength,[6],> 80%
"CCC(=O)COC=O [Compound 010, 2-oxobutyl formate]",pest or weed control at 25 % strength,[1],45%
same,pest or weed control at 25 % strength,[10],85%
same,pest or weed control at 25 % strength,[11],42%
same,pest or weed control at 25 % strength,[12],8%
same,"% Repellency, At least One Average >50%",[13],85%
"CCCCC(=O)/C=C/CO [Compound 041, (E)-1-hydroxyoct-2-en-4-one]",pest or weed control at 5 % strength,[6],> 80%
"C=CCNC(=O)CC [Compound 043, N-allylpropionamide]",pest or weed control at 5 % strength,[6],59%
"CCC(=O)/C=C(\C)C(C)=O [Compound 074, (E)-3-methylhept-3-ene-2,5-dione]",pest or weed control at 25 % strength,"beads, 20 uL, 25% w/w in dichloromethane:methanol (1:1), average of 3 replicates x 3 observation periods, read-out: % Repellency (% R), Overall Average",> 80%
"CCOC(=O)/C=C/C(=O)CC [Compound 068, (E)-ethyl 4-oxohex-2-enoate]",pest or weed control at 1 %,[2],43%
same,pest or weed control at 1 %,[3],30%
same,pest or weed control at 1 %,[4],32%
same,pest or weed control at 1 %,[5],65%
same,"% Repellency, At least One Average >50%","gauze, 10 uL, 1% v/v in hexane",65%
CCC(C)C(O)c1ccco1 (centres unmarked) [Compound 072],pest or weed control at 5 % strength,[6],79%
"CCC(O)c1ccco1 (centres unmarked) [Compound 075, 1-(furan-2-yl) propan-1-ol]",pest or weed control at 1 %,[2],79%
"CCC(=O)CC [Compound 062, 3-pentanone]",pest or weed control at 5 % strength,[6],10%
same,pest or weed control at 5 % strength,[14],89%
same,pest or weed control at 5 % strength,[7],-11%
same,pest or weed control at 5 % strength,[8],-3%
same,pest or weed control at 5 % strength,[9],43%
"CCCCCC=O [Compound 037, hexanal]",pest or weed control at 5 % strength,[6],79%
"CCC(=O)/C=C/C(C)O (centres unmarked) [Compound 042, (E)-6-hydroxyhept-4-en-3-one]",pest or weed control at 5 % strength,[6],76%
"CCCC(=O)CCC [Compound 051, 4-heptanone]",pest or weed control at 25 % strength,[1],> 80%
"CCC(=O)N(C)CC(OC)OC [Compound 049, N-(2,2-dimethoxyethyl)-N-methylpropionamide]",pest or weed control at 1 %,[2],78%
"CCCCCCCCCCCC(C)=O [Compound 024, Methyl undecyl ketone (2-tridecanone)]",pest or weed control at 5 % strength,[6],> 80%
"CCOC(=O)CCC(C)=O [Compound 076, ethyl levulinate]",pest or weed control at 5 % strength,[6],69%
"CC(=O)/C=C/C=O [Compound 001, 4-oxo-2-pentenal]",pest or weed control at 5 % strength,[6],57%
"CCC(=O)NCC(OC)OC [Compound 045, N-(2,2-dimethoxyethyl) propionamide]",pest or weed control at 5 % strength,[6],70%
"CC(O)c1ccco1 (centres unmarked) [Compound 069, 1-(furan-2-yl)ethanol]",pest or weed control at 25 % strength,[1],> 80%
"CN(C)C(=O)CCC(=O)O [Compound 053, 4-(Dimethylamino)-4-Oxobutanoic acid]",pest or weed control at 1 %,[2],52%
"CCC(=O)CC(=O)OC [Compound 034, Methyl 3-oxovalerate]",pest or weed control at 5 % strength,[6],27%
same,pest or weed control at 5 % strength,[7],81%
same,pest or weed control at 5 % strength,[8],94%
same,pest or weed control at 5 % strength,[9],-94%
same,"% Repellency, At least One Average >50%","gauze, 50 uL, 5% w/v in hexane",94%
"CCOC(=O)c1ccco1 [Compound 085, Ethyl 2-furoate]",pest or weed control at 25 % strength,[1],73%
"CCCCC/C=C/C=O [Compound 039, trans-2-octenal]",pest or weed control at 5 % strength,[6],78%
"CCCC(=O)c1ccco1 [Compound 086, 2-butyrylfuran]",pest or weed control at 25 % strength,"beads, 20 uL, 25% w/w in hexane:methanol (1:1), average of 3 replicates x 3 observation periods, read-out: % Repellency (% R), Overall Average",> 80%
"C=CC(O)c1ccco1 (centres unmarked) [Compound 078, 2-Furanmethanol, a-ethenyl-]",pest or weed control at 25 % strength,[1],> 80%
"CCC(=O)/C=C/C(=O)CC [Compound 067, (E)-oct-4-ene-3,6-dione]",pest or weed control at 5 % strength,"gauze, 50 uL, 5% w/v in hexane:methanol (1:1), average of 3 replicates x 3 observation periods, read-out: % Repellency (% R), Overall Average",> 80%
"CCOC(=O)/C=C(\C)C=O [Compound 057, Ethyl 3-methyl-4-oxocrotonate]",pest or weed control at 25 % strength,[1],> 80%
"CCC(=O)NCCO [Compound 018, N-(2-hydroxyethyl) propionamide]",pest or weed control at 25 % strength,[1],50%
same,pest or weed control at 25 % strength,[10],69%
same,pest or weed control at 25 % strength,[11],69%
same,pest or weed control at 25 % strength,[12],11%
same,"% Repellency, At least One Average >50%",[13],69%
"CCCC(=O)CC [Compound 026, 3-Hexanone]",pest or weed control at 5 % strength,[6],15%
same,pest or weed control at 5 % strength,[14],100%
same,pest or weed control at 5 % strength,[7],44%
same,pest or weed control at 5 % strength,[8],37%
same,pest or weed control at 5 % strength,[9],-36%
"CC(C)C(O)c1ccco1 (centres unmarked) [Compound 071, 1-(furan-2-yl)-2-methylpropan-1-ol]",pest or weed control at 1 %,[2],57%
"CCC(=O)C(=O)OC [Compound 054, Methyl-2-oxobutanoate]",pest or weed control at 1 %,[2],> 80%
